Source: patent publication US20240383904A1, “HETEROCYCLIC COMPOUNDS” (Hoffmann-La Roche Inc., priority 2021, published 2024)

target: T1, MAGL (Homo sapiens, UniProt Q99685); experiment: 2-AG assay: MAGL inhibitory activity by hydrolysis of 2-arachidonoylglycerol to arachidonic acid, followed by mass spectrometry; format: biochemical; conditions: 15 min preincubation, 30 min reaction at RT, 8 μM 2-arachidonoylglycerol
T1 sequence (Q99685 1-303): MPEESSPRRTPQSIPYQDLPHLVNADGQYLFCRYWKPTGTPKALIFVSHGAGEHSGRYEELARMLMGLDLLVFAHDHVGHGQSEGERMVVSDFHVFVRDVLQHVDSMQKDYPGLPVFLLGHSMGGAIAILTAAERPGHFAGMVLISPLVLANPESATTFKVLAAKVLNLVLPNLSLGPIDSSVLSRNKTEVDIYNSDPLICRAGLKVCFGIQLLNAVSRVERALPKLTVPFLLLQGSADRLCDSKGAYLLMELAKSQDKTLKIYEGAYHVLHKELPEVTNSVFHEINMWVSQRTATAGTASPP

Row | Compound | IC50 [nM]
1 | O=C1COCC2(CN(C(=O)N3CC4(CC(Cc5ccc(C(F)(F)F)nc5)C4)C3)C2)N1 [Example 174, 2-[6-[[6-(trifluoromethyl)-3-pyridyl]methyl]-2-azaspiro[3.3]heptane-2-carbonyl]-8-oxa-2,5-diazaspiro[3.5]nonan-6-one] | 16.7
2 | O=C1CCC2(CN(C(=O)N3CC4(CC(Cc5ncc(Cl)cc5F)C4)C3)C2)N1 [Example 175, 2-[6-[(5-chloro-3-fluoro-2-pyridyl)methyl]-2-azaspiro[3.3]heptane-2-carbonyl]-2,5-diazaspiro[3.4]octan-6-one] | 1.69
3 | O=C1COCC2(CN(C(=O)N3CC4(CC(Cc5ncc(F)cc5Cl)C4)C3)C2)N1 [Example 176, 2-[6-[(3-chloro-5-fluoro-2-pyridyl)methyl]-2-azaspiro[3.3]heptane-2-carbonyl]-8-oxa-2,5-diazaspiro[3.5]nonan-6-one] | 3
4 | O=C1COCC2(CN(C(=O)N3CC4(CC(Cc5ccc(OC(F)(F)F)cn5)C4)C3)C2)N1 [Example 177, 2-[6-[[5-(trifluoromethoxy)-2-pyridyl]methyl]-2-azaspiro[3.3]heptane-2-carbonyl]-8-oxa-2,5-diazaspiro[3.5]nonan-6-one] | 2.01
5 | O=C1COCC2(CN(C(=O)N3CC4(CC(Cc5cc(C(F)(F)F)ccn5)C4)C3)C2)N1 [Example 178, 2-[6-[[4-(trifluoromethyl)-2-pyridyl]methyl]-2-azaspiro[3.3]heptane-2-carbonyl]-8-oxa-2,5-diazaspiro[3.5]nonan-6-one] | 15.4
6 | O=C1CCC2(CN(C(=O)N3CC4(CC(Cc5ccc(OC(F)(F)F)nc5)C4)C3)C2)N1 [Example 179, 2-[6-[[6-(trifluoromethoxy)-3-pyridyl]methyl]-2-azaspiro[3.3]heptane-2-carbonyl]-2,5-diazaspiro[3.4]octan-6-one] | 1.66
7 | O=C1COCC2(CN(C(=O)N3CC4(CC(Cc5cncc(F)c5)C4)C3)C2)N1 [Example 180, 2-[6-[(5-fluoro-3-pyridyl)methyl]-2-azaspiro[3.3]heptane-2-carbonyl]-8-oxa-2,5-diazaspiro[3.5]nonan-6-one] | 202
8 | CS(=O)(=O)c1ccc(CC2CC3(C2)CN(C(=O)N2CC4(COCC(=O)N4)C2)C3)cc1C(F)(F)F [Example 181, 2-[6-[[4-methylsulfonyl-3-(trifluoromethyl)phenyl]methyl]-2-azaspiro[3.3]heptane-2-carbonyl]-8-oxa-2,5-diazaspiro[3.5]nonan-6-one] | 1.45
9 | O=C1COCC2(CN(C(=O)N3CC4(CC(Cc5cccc(S(=O)(=O)C(F)(F)F)c5)C4)C3)C2)N1 [Example 182, 2-[6-[[3-(trifluoromethylsulfonyl)phenyl]methyl]-2-azaspiro[3.3]heptane-2-carbonyl]-8-oxa-2,5-diazaspiro[3.5]nonan-6-one] | 485
10 | CS(=O)(=O)c1ccc(CC2CC3(C2)CN(C(=O)N2CC4(COCC(=O)N4)C2)C3)cc1C(F)(F)F [Example 183] | 7.31
11 | CS(=O)(=O)c1cc(C(F)(F)F)ccc1CC1CC2(C1)CN(C(=O)N1CC3(COCC(=O)N3)C1)C2 [Example 184, 2-[6-[[2-methylsulfonyl-4-(trifluoromethyl)phenyl]methyl]-2-azaspiro[3.3]heptane-2-carbonyl]-8-oxa-2,5-diazaspiro[3.5]nonan-6-one] | 210
12 | CS(=O)(=O)c1cc(C(F)(F)F)ccc1CC1CC2(C1)CN(C(=O)N1CC3(CCCC(=O)N3)C1)C2 [Example 185, 2-[6-[[2-methylsulfonyl-4-(trifluoromethyl)phenyl]methyl]-2-azaspiro[3.3]heptane-2-carbonyl]-2,5-diazaspiro[3.5]nonan-6-one] | 34.5
13 | O=C1CCCC2(CN(C(=O)N3CC4(CC(Cc5cccc(S(=O)(=O)C(F)(F)F)c5)C4)C3)C2)N1 [Example 186, 2-[6-[[3-(trifluoromethylsulfonyl)phenyl]methyl]-2-azaspiro[3.3]heptane-2-carbonyl]-2,5-diazaspiro[3.5]nonan-6-one] | 95
14 | CS(=O)(=O)c1cccc(CN2CC3(C2)CN(C(=O)N2CC4(COC(=O)N4)C2)C3)c1 [Example 187, 2-[6-[(3-methylsulfonylphenyl)methyl]-2,6-diazaspiro[3.3]heptane-2-carbonyl]-7-oxa-2,5-diazaspiro[3.4]octan-6-one] | 46.7
15 | O=C1NC2(CO1)CN(C(=O)N1CC3(CCN(S(=O)(=O)c4ccc(C(F)(F)F)cc4F)CC3)C1)C2 [Example 189, 2-[7-[2-fluoro-4-(trifluoromethyl)phenyl]sulfonyl-2,7-diazaspiro[3.5]nonane-2-carbonyl]-7-oxa-2,5-diazaspiro[3.4]octan-6-one] | 1.72
16 | O=C1NC2(CO1)CN(C(=O)N1CC3(C1)CN(S(=O)(=O)c1ccccc1OC(F)(F)F)C3)C2 [Example 190, 2-[2-[2-(trifluoromethoxy)phenyl]sulfonyl-2,6-diazaspiro[3.3]heptane-6-carbonyl]-7-oxa-2,5-diazaspiro[3.4]octan-6-one] | 10.4
17 | O=C1NC2(CO1)CN(C(=O)N1CC3(C1)CN(S(=O)(=O)c1ccc(OC(F)(F)F)cc1)C3)C2 [Example 191, 2-[2-[4-(trifluoromethoxy)phenyl]sulfonyl-2,6-diazaspiro[3.3]heptane-6-carbonyl]-7-oxa-2,5-diazaspiro[3.4]octan-6-one] | 30
18 | O=C1NC2(CO1)CN(C(=O)N1CC3(C1)CN(S(=O)(=O)c1cccc(OC(F)(F)F)c1)C3)C2 [Example 192, 2-[2-[3-(trifluoromethoxy)phenyl]sulfonyl-2,6-diazaspiro[3.3]heptane-6-carbonyl]-7-oxa-2,5-diazaspiro[3.4]octan-6-one] | 14.7
19 | CC1(NS(=O)(=O)N2CC3(CN(C(=O)N4CC5(COC(=O)N5)C4)C3)C2)CC1 [Example 193, N-(1-methylcyclopropyl)-6-(6-oxo-7-oxa-2,5-diazaspiro[3.4]octane-2-carbonyl)-2,6-diazaspiro[3.3]heptane-2-sulfonamide] | 65.3
20 | O=C1CCC2(CN(C(=O)N3CC4(CCN(S(=O)(=O)c5ccc(C(F)(F)F)cc5F)CC4)C3)C2)N1 [Example 194, 2-[7-[2-fluoro-4-(trifluoromethyl)phenyl]sulfonyl-2,7-diazaspiro[3.5]nonane-2-carbonyl]-2,5-diazaspiro[3.4]octan-6-one] | 44.6
21 | O=C1NC2(CO1)CN(C(=O)N1CC3(C1)CN(S(=O)(=O)c1ccc(F)cc1C(F)(F)F)C3)C2 [Example 195, 2-[2-[4-fluoro-2-(trifluoromethyl)phenyl]sulfonyl-2,6-diazaspiro[3.3]heptane-6-carbonyl]-7-oxa-2,5-diazaspiro[3.4]octan-6-one] | 2.51

The remaining lines, values ahead:

Row | IC50 [nM] | Compound
22 | 38.8 | O=C1NC2(CO1)CN(C(=O)N1CC3(C1)CN(S(=O)(=O)c1cncc(C(F)(F)F)c1)C3)C2 [Example 196, 2-[2-[[5-(trifluoromethyl)-3-pyridyl]sulfonyl]-2,6-diazaspiro[3.3]heptane-6-carbonyl]-7-oxa-2,5-diazaspiro[3.4]octan-6-one]
23 | 4.39 | O=C1NC2(CO1)CN(C(=O)N1CC3(C1)CN(S(=O)(=O)NCC1(C(F)(F)F)CC1)C3)C2 [Example 197, 6-(6-oxo-7-oxa-2,5-diazaspiro[3.4]octane-2-carbonyl)-N-[[1-(trifluoromethyl)cyclopro-pyl]methyl]-2,6-diazaspiro[3.3]heptane-2-sulfonamide]
24 | 232 | O=C1CCC2(CN(C(=O)N3CC4(C3)CN(S(=O)(=O)c3cccc(OC(F)(F)F)c3)C4)C2)N1 [Example 198, 2-[2-[3-(trifluoromethoxy)phenyl]sulfonyl-2,6-diazaspiro[3.3]heptane-6-carbonyl]-2,5-diazaspiro[3.4]octan-6-one]
25 | 266 | O=C1CCC2(CN(C(=O)N3CC4(C3)CN(S(=O)(=O)c3ccc(OC(F)(F)F)cc3)C4)C2)N1 [Example 199, 2-[2-[4-(trifluoromethoxy)phenyl]sulfonyl-2,6-diazaspiro[3.3]heptane-6-carbonyl]-2,5-diazaspiro[3.4]octan-6-one]
26 | 116 | O=C1CCC2(CN(C(=O)N3CC4(C3)CN(S(=O)(=O)c3ccccc3OC(F)(F)F)C4)C2)N1 [Example 200, 2-[2-[2-(trifluoromethoxy)phenyl]sulfonyl-2,6-diazaspiro[3.3]heptane-6-carbonyl]-2,5-diazaspiro[3.4]octan-6-one]
27 | 165 | CNC(=O)c1ccccc1CN1CC2(C1)CN(C(=O)N1CC3(COC(=O)N3)C1)C2 [Example 201, N-methyl-2-[[2-(6-oxo-7-oxa-2,5-diazaspiro[3.4]octane-2-carbonyl)-2,6-diazaspiro[3.3]heptan-6-yl]methyl]benzamide]
28 | 61.4 | O=C1NC2(CO1)CN(C(=O)N1CC3(C1)CN(c1ccc(C(F)(F)F)cn1)C3)C2 [Example 202, 2-[6-[5-(trifluoromethyl)-2-pyridyl]-2,6-diazaspiro[3.3]heptane-2-carbonyl]-7-oxa-2,5-diazaspiro[3.4]octan-6-one]
29 | 61.6 | O=C1NC2(CO1)CN(C(=O)N1CC3(C1)CN(c1ncc(C(F)(F)F)cc1F)C3)C2 [Example 203, 2-[6-[3-fluoro-5-(trifluoromethyl)-2-pyridyl]-2,6-diazaspiro[3.3]heptane-2-carbonyl]-7-oxa-2,5-diazaspiro[3.4]octan-6-one]
30 | 11.8 | O=C1NC2(CO1)CN(C(=O)N1CC3(CCN(S(=O)(=O)C45CC(C(F)(F)F)(C4)C5)CC3)C1)C2 [Example 204, 2-[7-[[3-(trifluoromethyl)-1-bicyclo[1.1.1]pentanyl]sulfonyl]-2,7-diazaspiro[3.5]nonane-2-carbonyl]-7-oxa-2,5-diazaspiro[3.4]octan-6-one]
31 | 265 | O=C1CCC2(CN(C(=O)N3CC4(CCN(S(=O)(=O)C56CC(C(F)(F)F)(C5)C6)CC4)C3)C2)N1 [Example 205, 2-[7-[[3-(trifluoromethyl)-1-bicyclo[1.1.1]pentanyl]sulfonyl]-2,7-diazaspiro[3.5]nonane-2-carbonyl]-2,5-diazaspiro[3.4]octan-6-one]
